We go through 26 compounds from PubChem BioAssay AID256 (DTP/NCI, 2004).

In the assay the test system is CD2F1 mice, L1210 leukemia ip, survival T/C. The assay can be described thus: NCI In Vivo Anticancer Drug Screen. Data for tumor model L1210 Leukemia (intraperitoneal) in CD2F1 (CDF1) mice. As to conditions: endpoint: mean survival time, higher = longer survival. In short, it runs like this: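 Antitumor effect is scored in animals hosting a serially transplanted tumor. Values compare compound-dosed animals against vehicle-only controls as a simple quotient.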

Where [1] appears, read: dose: 100.0 mg/kg/injection, schedule: Q01DX009 (ip), vehicle: Klucel (hydroxypropylcellulose) (HPC).
Setting [2] is: dose: 200.0 mg/kg/injection, schedule: Q01DX009 (ip), vehicle: Klucel (hydroxypropylcellulose) (HPC).
Setting [3] is: dose: 100.0 mg/kg/injection, schedule: Q04DX003 (ip), vehicle: saline.
[4] abbreviates: dose: 200.0 mg/kg/injection, schedule: Q04DX003 (ip), vehicle: saline.
[5] abbreviates: dose: 400.0 mg/kg/injection, schedule: Q04DX003 (ip), vehicle: saline.
Setting [6] is: dose: 50.0 mg/kg/injection, schedule: Q01DX009 (ip), vehicle: saline with Tween-80.
Where [7] appears, read: dose: 100.0 mg/kg/injection, schedule: Q04DX003 (ip), vehicle: saline with Tween-80.
[8] abbreviates: dose: 200.0 mg/kg/injection, schedule: Q04DX003 (ip), vehicle: saline with Tween-80.
The mark [9] stands for this setting: dose: 100.0 mg/kg/injection, schedule: Q01DX001 (ip), vehicle: saline.
The mark [10] stands for this setting: dose: 200.0 mg/kg/injection, schedule: Q01DX001 (ip), vehicle: saline.
The mark [11] stands for this setting: dose: 400.0 mg/kg/injection, schedule: Q01DX001 (ip), vehicle: saline.
[12] abbreviates: dose: 400.0 mg/kg/injection, schedule: Q04DX003 (ip), vehicle: saline with Tween-80.
Setting [13] is: dose: 50.0 mg/kg/injection, schedule: Q01DX009 (ip), vehicle: Klucel (hydroxypropylcellulose) (HPC).
Where [14] appears, read: dose: 100.0 mg/kg/injection, schedule: Q04DX003 (ip), vehicle: Klucel (hydroxypropylcellulose) (HPC).
The mark [15] stands for this setting: dose: 200.0 mg/kg/injection, schedule: Q04DX003 (ip), vehicle: Klucel (hydroxypropylcellulose) (HPC).
Setting [16] is: dose: 400.0 mg/kg/injection, schedule: Q04DX003 (ip), vehicle: Klucel (hydroxypropylcellulose) (HPC).

SMILES strings stand for the structures. Where “and” joins values, the source holds several entries; their conditions need not be identical. Equal values may be shown once. Toxic doses and inconclusive results are not listed.

Turning to `CCC(c1ccc2cc(OC)ccc2c1)C(CC(=O)O)C(=O)OC` (stereo unspecified), the T/C runs as follows: under setting [1], 98 % of control; under setting [2], 98 % of control; (dose: 400.0 mg/kg/injection, schedule: Q01DX009 (ip), vehicle: Klucel (hydroxypropylcellulose) (HPC)) 100 % of control.

With `Cc1nc(C)c(C(=O)O)cc1C(=O)O`, the T/C under setting [3] was 102 % of control, the T/C under setting [4] is 96 % of control and the T/C under setting [5] is 98 % of control.

`C=CCSc1nc(N)nc2nc[nH]c12`: the T/C (dose: 100.0 mg/kg/injection, schedule: Q04DX003 (ip), vehicle: saline sonified) was 107 % of control and the T/C (dose: 200.0 mg/kg/injection, schedule: Q04DX003 (ip), vehicle: saline sonified) is 96 % of control.

With `OCC1OC(n2ncc3c(N/N=C/c4ccc(N(CCCl)CCCl)cc4)ncnc32)C(O)C1O` (stereo unspecified), the T/C (dose: 25.0 mg/kg/injection, schedule: Q01DX009 (ip), vehicle: saline with Tween-80) was 102 % of control; the T/C under setting [6] is 93 % of control; the T/C (dose: 100.0 mg/kg/injection, schedule: Q01DX009 (ip), vehicle: saline with Tween-80) is 102 % of control; the T/C (dose: 200.0 mg/kg/injection, schedule: Q01DX009 (ip), vehicle: saline with Tween-80) was 89 % of control; the T/C (dose: 400.0 mg/kg/injection, schedule: Q01DX009 (ip), vehicle: saline with Tween-80) is 93 % of control.

In the case of `NC(=O)C[n+]1cccc(C(=O)Nc2ccccc2)c1`, the T/C reads like this: (dose: 100.0 mg/kg/injection, schedule: Q01DX009 (ip), vehicle: saline sonified) 95 % of control; (dose: 200.0 mg/kg/injection, schedule: Q01DX009 (ip), vehicle: saline sonified) 89 % of control.

In the case of `CCOC(=O)c1cc(C(=O)OCC)c2ccc(Br)ccc1-2`, the T/C by setting is: (dose: 100.0 mg/kg/injection, schedule: Q01DX001 (sc), vehicle: olive oil, sesame oil, peanut oil) 105 % of control; (dose: 200.0 mg/kg/injection, schedule: Q01DX001 (sc), vehicle: olive oil, sesame oil, peanut oil) 96 % of control; (dose: 400.0 mg/kg/injection, schedule: Q01DX001 (sc), vehicle: olive oil, sesame oil, peanut oil) 93 % of control.

For `CC(C)(C)NC(=S)Nc1ccccc1`, the T/C runs as follows: (dose: 50.0 mg/kg/injection, schedule: Q04DX003 (ip), vehicle: saline with Tween-80) 100 % of control; under setting [7], 94 % of control; under setting [8], 91 % of control.

On to `CC=C(CCCC)CCCC`, for which the T/C is 107 % of control under setting [9], 102 % of control under setting [10] and 103 % of control under setting [11].

As for `OC1(c2ccccc2)C(N2CCOCC2)=C(c2ccccc2)c2ccccc21` (stereo unspecified), the T/C by setting is: under setting [7], 105 % of control; under setting [8], 100 % of control; under setting [12], 95 % of control.

Regarding `C=CCSc1ncnc2c1ncn2C1OC(CO)C(O)C1O` (stereo unspecified), the T/C was 154 % of control (dose: 88.0 mg/kg/injection, schedule: Q01DX009 (ip), vehicle: carboxymethylcellulose (CMC)) and 158 % of control (dose: 133.0 mg/kg/injection, schedule: Q01DX009 (ip), vehicle: carboxymethylcellulose (CMC)).

`COCCOC`: the T/C runs as follows: (dose: 200.0 mg/kg/injection, schedule: Q01DX Z (ip), vehicle: carboxymethylcellulose (CMC)) 103 % of control; (dose: 300.0 mg/kg/injection, schedule: Q01DX Z (ip), vehicle: carboxymethylcellulose (CMC)) 110 % of control; (dose: 450.0 mg/kg/injection, schedule: Q01DX Z (ip), vehicle: carboxymethylcellulose (CMC)) 114 % of control; (dose: 675.0 mg/kg/injection, schedule: Q01DX Z (ip), vehicle: carboxymethylcellulose (CMC)) 102 % of control.

In the case of `C=Cc1ccc(C(N)=O)cc1`, the T/C under setting [7] was 101 % of control, the T/C under setting [8] is 98 % of control and the T/C under setting [12] was 96 % of control.

As to `CNC(=O)c1nc2c(nc1NC)n(C)c(=O)n2C`, the T/C is 93 % of control (dose: 12.5 mg/kg/injection, schedule: Q01DX005 (ip), vehicle: other); 90 % of control (dose: 25.0 mg/kg/injection, schedule: Q01DX005 (ip), vehicle: other); 95 % of control (dose: 50.0 mg/kg/injection, schedule: Q01DX005 (ip), vehicle: other).

On to `CC1(C(=O)O)CCCC2(C)c3cc(O)ccc3CCC12` (stereo unspecified), for which the T/C by setting is: under setting [13], 94 % of control; under setting [1], 90 % of control.

Regarding `O=c1[nH][nH]c(=O)c2c1oc1c(=O)[nH][nH]c(=O)c12`, the T/C reads like this: (dose: 25.0 mg/kg/injection, schedule: Q01DX001 (ip), vehicle: saline with Tween-80) 104 % of control; (dose: 50.0 mg/kg/injection, schedule: Q01DX001 (ip), vehicle: saline with Tween-80) 92 % of control.

Take `O=P1(N(CCCl)CCCl)OCCC(OO)N1CCCl` (stereo unspecified): the T/C was 268 % of control (dose: 100.0 mg/kg/injection, schedule: Q01DX001 (ip), vehicle: DMSO); 281 % of control (dose: 100.0 mg/kg/injection, schedule: Q01DX001 (ip), vehicle: Klucel (hydroxypropylcellulose) (HPC)); 309 % of control (dose: 200.0 mg/kg/injection, schedule: Q01DX001 (ip), vehicle: Klucel (hydroxypropylcellulose) (HPC)); 163 % of control (dose: 400.0 mg/kg/injection, schedule: Q01DX001 (ip), vehicle: DMSO).

Turning to `COC(=O)CCC1CCCC(CCC(=O)OC)C1=O` (stereo unspecified), the T/C is 87 % of control under setting [14], 94 % of control under setting [15] and 92 % of control under setting [16].

Regarding `Nc1ccc(S(=O)(=O)O)c2ccccc12`, the T/C reads like this: under setting [13], 86 % of control; under setting [1], 104 % of control; under setting [3], 97 % of control; under setting [2], 104 % of control; under setting [4], 101 % of control; under setting [5], 103 % of control.

Turning to `CC1CC/C(=N/NC(N)=O)C1` (stereo unspecified), the T/C (dose: 50.0 mg/kg/injection, schedule: Q01DX001 (ip), vehicle: carboxymethylcellulose (CMC)) was 100 % of control; the T/C (dose: 100.0 mg/kg/injection, schedule: Q01DX001 (ip), vehicle: carboxymethylcellulose (CMC)) is 94 % of control; the T/C (dose: 200.0 mg/kg/injection, schedule: Q01DX001 (ip), vehicle: carboxymethylcellulose (CMC)) is 100 % of control; the T/C (dose: 400.0 mg/kg/injection, schedule: Q01DX001 (ip), vehicle: carboxymethylcellulose (CMC)) was 100 % of control.

In the case of `O=c1ccc2nc3ccccc3sc-2c1`, the T/C is, setting by setting: (dose: 25.0 mg/kg/injection, schedule: Q01DX009 (ip), vehicle: Klucel (hydroxypropylcellulose) (HPC)) 106 % of control; under setting [13], 103 % of control; under setting [6], 97 % of control; under setting [1], 108 % of control; under setting [2], 98 % of control.

Regarding `Cc1cc(N)nc2ccccc12`, the T/C runs as follows: (dose: 3.12 mg/kg/injection, schedule: Q04DX002 (ip), vehicle: saline with Tween-80) 101 % of control; (dose: 6.25 mg/kg/injection, schedule: Q04DX002 (ip), vehicle: saline with Tween-80) 105 % of control; (dose: 12.5 mg/kg/injection, schedule: Q04DX002 (ip), vehicle: saline with Tween-80) 94 % of control and 101 % of control.

For the compound `C(=N\Nc1nc2ccccc2o1)/c1ccncc1`, the T/C runs as follows: under setting [14], 103 % of control; under setting [15], 95 % of control; under setting [16], 101 % of control.

Regarding `COC1=CC(=O)c2ccccc2C1=O`, the T/C runs as follows: under setting [7], 91 % of control; under setting [8], 87 % of control.

In the case of `Cc1ccc(NC(=O)c2ccc(C(=O)Nc3ccc(C)c(Cl)c3)cc2)cc1Cl`, the T/C was 89 % of control under setting [9], 98 % of control under setting [10] and 89 % of control under setting [11].

Turning to `O=C(CCCN1CCC(O)(c2ccc(Cl)cc2)CC1)c1ccc(N2CCC(O)CC2)cc1`, the T/C reads like this: (dose: 100.0 mg/kg/injection, schedule: Q04DX002 (ip), vehicle: saline with Tween-80) 104 % of control; (dose: 200.0 mg/kg/injection, schedule: Q04DX002 (ip), vehicle: saline with Tween-80) 93 % of control; (dose: 400.0 mg/kg/injection, schedule: Q04DX002 (ip), vehicle: saline with Tween-80) 93 % of control.

Turning to `CON(C)CC(O)c1ccccc1` (stereo unspecified), the T/C under setting [7] is 94 % of control and the T/C under setting [8] is 92 % of control.
